The target in the assay is T1, PIK3CA/PIK3R1 (p110α/p85α) (Homo sapiens, UniProt P42336).
T1 construct: purchased Thermo Fisher Scientific (Life Technologies) SelectScreen
Description: SelectScreen Adapta. In kind it is biochemical. The procedure, abridged: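 Percent values come from Thermo SelectScreen profiling of NU5455, combining activity and binding assays. CSF1R was run in Z'LYTE format at Km app ATP, and CAMK1 in Adapta format with ATP listed at 10.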

T1 sequence (P42336 whole entry): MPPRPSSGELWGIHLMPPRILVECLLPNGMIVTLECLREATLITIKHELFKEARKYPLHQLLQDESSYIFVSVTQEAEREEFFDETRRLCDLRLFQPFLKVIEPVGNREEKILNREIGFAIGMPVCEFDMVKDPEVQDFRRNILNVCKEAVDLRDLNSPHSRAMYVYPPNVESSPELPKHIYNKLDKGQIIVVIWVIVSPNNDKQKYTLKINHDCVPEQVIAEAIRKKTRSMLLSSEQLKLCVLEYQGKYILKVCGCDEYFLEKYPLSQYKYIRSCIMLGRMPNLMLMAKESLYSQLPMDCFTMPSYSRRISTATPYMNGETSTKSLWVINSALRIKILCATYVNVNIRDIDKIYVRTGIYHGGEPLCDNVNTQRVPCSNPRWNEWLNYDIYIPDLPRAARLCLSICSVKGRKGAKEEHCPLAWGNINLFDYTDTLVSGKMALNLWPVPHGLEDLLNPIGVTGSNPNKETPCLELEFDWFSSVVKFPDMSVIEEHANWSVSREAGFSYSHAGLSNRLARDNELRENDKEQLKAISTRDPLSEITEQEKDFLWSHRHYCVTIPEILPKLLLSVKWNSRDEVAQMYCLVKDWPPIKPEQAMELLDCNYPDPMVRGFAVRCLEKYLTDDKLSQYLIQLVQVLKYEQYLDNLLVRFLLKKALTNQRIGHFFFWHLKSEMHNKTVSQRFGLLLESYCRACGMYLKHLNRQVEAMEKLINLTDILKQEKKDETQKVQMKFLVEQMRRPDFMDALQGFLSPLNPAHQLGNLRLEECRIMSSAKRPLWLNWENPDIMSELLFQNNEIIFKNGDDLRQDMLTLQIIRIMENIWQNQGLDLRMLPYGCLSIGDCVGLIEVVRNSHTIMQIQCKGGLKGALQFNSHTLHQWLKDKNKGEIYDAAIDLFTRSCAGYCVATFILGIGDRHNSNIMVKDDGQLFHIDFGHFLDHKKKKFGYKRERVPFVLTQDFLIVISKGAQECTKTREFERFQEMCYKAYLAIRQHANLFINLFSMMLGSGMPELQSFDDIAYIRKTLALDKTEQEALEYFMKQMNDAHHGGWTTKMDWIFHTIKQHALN
T1 sequence (P27986 whole entry partner): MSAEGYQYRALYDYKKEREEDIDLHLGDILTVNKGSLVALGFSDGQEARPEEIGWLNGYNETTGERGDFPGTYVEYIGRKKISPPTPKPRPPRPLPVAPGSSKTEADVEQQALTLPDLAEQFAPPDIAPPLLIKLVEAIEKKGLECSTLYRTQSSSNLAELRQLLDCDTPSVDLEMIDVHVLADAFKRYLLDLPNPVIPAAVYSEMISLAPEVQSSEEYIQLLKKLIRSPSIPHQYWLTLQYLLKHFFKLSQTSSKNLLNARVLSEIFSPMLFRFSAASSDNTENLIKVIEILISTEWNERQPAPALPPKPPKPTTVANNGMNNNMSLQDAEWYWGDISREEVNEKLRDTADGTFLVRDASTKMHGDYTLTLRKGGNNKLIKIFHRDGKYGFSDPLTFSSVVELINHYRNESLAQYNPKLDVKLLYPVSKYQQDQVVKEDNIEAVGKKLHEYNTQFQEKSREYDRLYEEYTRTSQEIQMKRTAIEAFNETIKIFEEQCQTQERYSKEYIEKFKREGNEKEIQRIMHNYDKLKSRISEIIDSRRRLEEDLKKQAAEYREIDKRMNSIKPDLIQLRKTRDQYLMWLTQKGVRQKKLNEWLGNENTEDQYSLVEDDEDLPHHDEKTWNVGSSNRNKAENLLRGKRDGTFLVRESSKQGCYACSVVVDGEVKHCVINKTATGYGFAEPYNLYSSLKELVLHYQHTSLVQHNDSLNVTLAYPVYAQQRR

As usually defined, the inhibition is the change of the read-out against control, counted positive when it falls. Read a low inhibition as a response near the control. `CN(C(=O)CN1CCOCC1)c1ccc2sc3c(-c4cccc5c(=O)cc(N6CC7CCC(C6)O7)oc45)cccc3c2c1` [NU5455] had an inhibition at 1 µM of 4.2%.

Values taken from paper PMC6934184, “Selective DNA-PKcs inhibition extends the therapeutic index of localized radiotherapy and chemotherapy” (The Journal of Clinical Investigation, 2019).
